Results from patent publication US10336709B2, “Lp-PLA2 inhibitors” (ABIDE THERAPEUTICS, INC., priority 2015, dated 2019).

How the values were obtained:
[1] = molecular target: T1, Lp-PLA2 (Mus musculus, UniProt Q60963); experiment: In vitro competitive activity-based protein profiling (HT-01 probe, gel band PLA2G7); format: biochemical; parameters: Lp-PLA2 % at 100 μM: scale not given here; conditions: mouse brain membrane proteomes; for IC50: 30 min preincubation at 37° C
T1 construct: Mouse brain membrane proteomes (50 μL, 1.0 mg/mL total protein concentration) were preincubated; from tissue; host or cells: mouse brain membrane fraction
T1 sequence (Q60963 22-440): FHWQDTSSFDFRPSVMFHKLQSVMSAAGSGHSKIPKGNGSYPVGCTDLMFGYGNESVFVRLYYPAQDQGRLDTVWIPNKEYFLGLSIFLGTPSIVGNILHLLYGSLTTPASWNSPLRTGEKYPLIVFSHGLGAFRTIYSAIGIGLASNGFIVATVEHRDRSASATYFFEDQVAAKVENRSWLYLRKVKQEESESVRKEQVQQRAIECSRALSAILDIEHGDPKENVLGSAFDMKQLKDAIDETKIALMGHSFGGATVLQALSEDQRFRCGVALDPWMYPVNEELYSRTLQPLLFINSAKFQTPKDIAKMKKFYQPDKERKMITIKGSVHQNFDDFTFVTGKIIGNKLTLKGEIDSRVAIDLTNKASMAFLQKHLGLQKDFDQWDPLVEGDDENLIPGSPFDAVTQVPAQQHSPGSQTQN
Description: (§1) Compounds are tested to assess their Lp-PLA2 and serine hydrolase activity using the following in vitro assays.
(§2) In Vitro Competitive Activity-Based Protein Profiling
(§3) Mouse brain membrane proteomes (50 μL, 1.0 mg/mL total protein concentration) were preincubated with varying concentrations of inhibitors at 37° C. After 30 min, HT-01 probe (1.0 μL, 50 μM in DMSO) was added and the mixture was incubated for another 30 min at room temperature. Reactions were quenched with SDS loading buffer (15 μL-4×) and run on SDS-PAGE gels. Following gel imaging, serine hydrolase activity was determined by measuring fluorescent intensity of gel bands corresponding to PLA2G7 and ABHD6 using ImageJ 1.49 k software.

[2] = molecular target: T2, ABHD6 (Mus musculus, UniProt Q8R2Y0); experiment: In vitro competitive activity-based protein profiling (HT-01 probe, gel band ABHD6); format: biochemical; parameters: ABHD6 % at 100 μM: scale not given here; conditions: mouse brain membrane proteomes; for IC50: 30 min preincubation at 37° C
T2 construct: Mouse brain membrane proteomes (50 μL, 1.0 mg/mL total protein concentration) were preincubated; from tissue; host or cells: mouse brain membrane fraction
T2 sequence (Q8R2Y0 1-336): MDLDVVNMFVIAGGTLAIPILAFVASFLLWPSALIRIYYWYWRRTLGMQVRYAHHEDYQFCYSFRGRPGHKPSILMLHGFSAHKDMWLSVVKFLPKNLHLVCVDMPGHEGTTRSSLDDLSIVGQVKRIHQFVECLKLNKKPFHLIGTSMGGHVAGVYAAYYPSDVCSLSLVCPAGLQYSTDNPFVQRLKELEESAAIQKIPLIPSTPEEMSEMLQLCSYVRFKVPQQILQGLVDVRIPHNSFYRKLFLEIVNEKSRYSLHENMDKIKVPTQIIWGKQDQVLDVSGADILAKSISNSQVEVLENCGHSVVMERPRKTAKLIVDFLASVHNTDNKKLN
Description: as §1, §2, §3

IC50 [1] [µM]	IC50 [2] [µM]	other results	Structure (SMILES)
< 0.1	0.1 to 1	–	O=C(ON1C(=O)N[C@@H](Cc2ccccc2)C1=O)N1CCN(c2cccc(C(=O)N3CCOCC3)c2Cl)CC1 [Example 9, (S)-4-benzyl-2,5-dioxoimidazolidin-1-yl 4-(2-chloro-3-(morpholine-4-carbonyl)phenyl)piperazine-1-carboxylate]
< 0.1	< 0.1	–	O=C(ON1C(=O)N[C@H](Cc2ccccc2)C1=O)N1CCN(c2cccc(C(=O)N3CCOCC3)c2Cl)CC1 [Example 12, (R)-4-benzyl-2,5-dioxoimidazolidin-1-yl 4-(2-chloro-3-(morpholine-4-carbonyl)phenyl)piperazine-1-carboxylate]
> 1	> 1	–	O=C(O)c1cccc(N2CCN(C(=O)ON3C(=O)N[C@@H](Cc4ccccc4)C3=O)CC2)c1Cl [Example 19, (S)-3-(4-((4-benzyl-2,5-dioxoimidazolidin-1-yloxy)carbonyl)piperazin-1-yl)-2-chlorobenzoic acid]
< 0.1	< 0.1	–	O=C(ON1C(=O)N[C@@H](Cc2ccccc2)C1=O)N1CCN(c2cc(C(=O)N3CCCCC3)ccc2Cl)CC1 [Example 17, (S)-4-benzyl-2,5-dioxoimidazolidin-1-yl 4-(2-chloro-5-(piperidine-1-carbonyl)phenyl)piperazine-1-carboxylate]
< 0.1	< 0.1	–	O=C(ON1C(=O)N[C@@H](Cc2ccccc2)C1=O)N1CCN(c2cccc(C(=O)N3CCCCC3)c2)CC1 [Example 13, (S)-4-benzyl-2,5-dioxoimidazolidin-1-yl 4-(3-(piperidine-1-carbonyl)phenyl)piperazine-1-carboxylate]
–	–	Lp-PLA2 % at 100 μM [1]: 50% at 100 μM; ABHD6 % at 100 μM [2]: 50% at 100 μM	O=C(ON1C(=O)N[C@@H](Cc2ccc(Cl)cc2)C1=O)N1CCN(c2cccc(C(=O)N3CCCCC3)c2Cl)CC1 [Example 23, (S)-4-(4-chlorobenzyl)-2,5-dioxoimidazolidin-1-yl 4-(2-chloro-3-(piperidine-1-carbonyl)phenyl)piperazine-1-carboxylate]
< 0.1	< 0.1	–	O=C(ON1C(=O)N[C@@H](Cc2ccccc2)C1=O)N1CCN(c2cccc(C(=O)N3CCCC3)c2Cl)CC1 [Example 7, (S)-4-benzyl-2,5-dioxoimidazolidin-1-yl 4-(2-chloro-3-(pyrrolidine-1-carbonyl)phenyl)piperazine-1-carboxylate]
< 0.1	< 0.1	–	O=C(ON1C(=O)N[C@H](Cc2ccccc2)C1=O)N1CCN(c2cccc(C(=O)N3CCCC3)c2Cl)CC1 [Example 10, (R)-4-benzyl-2,5-dioxoimidazolidin-1-yl 4-(2-chloro-3-(pyrrolidine-1-carbonyl)phenyl)piperazine-1-carboxylate]
–	–	Lp-PLA2 % at 100 μM [1]: 25% at 100 μM; ABHD6 % at 100 μM [2]: 25% at 100 μM	NC(=O)c1cccc(N2CCN(C(=O)ON3C(=O)N[C@@H](Cc4ccccc4)C3=O)CC2)c1Cl [Example 18, (S)-4-benzyl-2,5-dioxoimidazolidin-1-yl 4-(3-carbamoyl-2-chlorophenyl)piperazine-1-carboxylate]
< 0.1	0.1 to 1	–	O=C(ON1C(=O)N[C@@H](Cc2ccccc2)C1=O)N1CCN(c2cccc(C(=O)N3CCCCC3)c2Cl)CC1 [Example 8, (S)-4-benzyl-2,5-dioxoimidazolidin-1-yl 4-(2-chloro-3-(piperidine-1-carbonyl)phenyl)piperazine-1-carboxylate]
< 0.1	< 0.1	–	CN1C(=O)N(OC(=O)N2CCN(c3cccc(C(=O)N4CCCCC4)c3Cl)CC2)C(=O)[C@@H]1Cc1ccccc1 [Example 20, (S)-4-benzyl-3-methyl-2,5-dioxoimidazolidin-1-yl 4-(2-chloro-3-(piperidine-1-carbonyl)phenyl)piperazine-1-carboxylate]
0.1 to 1	0.1 to 1	–	CC(C)[C@@H]1NC(=O)N(OC(=O)N2CCN(c3cccc(C(=O)N4CCOCC4)c3Cl)CC2)C1=O [Example 3, (S)-4-isopropyl-2,5-dioxoimidazolidin-1-yl 4-(2-chloro-3-(morpholine-4-carbonyl)phenyl)piperazine-1-carboxylate]
–	–	inhibition at 10 µM [1]: 100%; inhibition at 10 µM ([2]; at 10 μM): 100%	O=C(ON1C(=O)N[C@@H](Cc2ccccc2)C1=O)N1CCCN(c2cccc(C(=O)N3CCCCC3)c2Cl)CC1 [Example 21, (S)-4-benzyl-2,5-dioxoimidazolidin-1-yl 4-(2-chloro-3-(piperidine-1-carbonyl)phenyl)-1,4-diazepane-1-carboxylate]
< 0.1	< 0.1	–	O=C(ON1C(=O)N[C@@H](Cc2ccccc2)C1=O)N1CCN(c2ccc(C(=O)N3CCCCC3)cc2Cl)CC1 [Example 15, (S)-4-benzyl-2,5-dioxoimidazolidin-1-yl 4-(2-chloro-4-(piperidine-1-carbonyl)phenyl)piperazine-1-carboxylate]
< 0.1	< 0.1	–	CN(C)C(=O)c1cccc(N2CCN(C(=O)ON3C(=O)N[C@@H](Cc4ccccc4)C3=O)CC2)c1Cl [Example 16, (S)-4-benzyl-2,5-dioxoimidazolidin-1-yl 4-(2-chloro-3-(dimethylcarbamoyl)phenyl)piperazine-1-carboxylate]
< 0.1	< 0.1	–	CN1CCN(C(=O)c2cccc(N3CCN(C(=O)ON4C(=O)N[C@@H](Cc5ccccc5)C4=O)CC3)c2Cl)CC1 [Example 14, (S)-4-benzyl-2,5-dioxoimidazolidin-1-yl 4-(2-chloro-3-(4-methylpiperazine-1-carbonyl)phenyl)piperazine-1-carboxylate]
< 0.1	< 0.1	–	O=C(ON1C(=O)N[C@H](Cc2ccccc2)C1=O)N1CCN(c2cccc(C(=O)N3CCCCC3)c2Cl)CC1 [Example 11, (R)-4-benzyl-2,5-dioxoimidazolidin-1-yl 4-(2-chloro-3-(piperidine-1-carbonyl)phenyl)piperazine-1-carboxylate]
–	0.1 to 1	inhibition at 10 µM [1]: 75%	CC(C)[C@H]1NC(=O)N(OC(=O)N2CCN(c3cccc(C(=O)N4CCCCC4)c3Cl)CC2)C1=O [Example 5, (R)-4-isopropyl-2,5-dioxoimidazolidin-1-yl 4-(2-chloro-3-(piperidine-1-carbonyl)phenyl)piperazine-1-carboxylate]
0.1 to 1	< 0.1	–	CC(C)[C@@H]1NC(=O)N(OC(=O)N2CCN(c3cccc(C(=O)N4CCCC4)c3Cl)CC2)C1=O [Example 1, (S)-4-isopropyl-2,5-dioxoimidazolidin-1-yl 4-(2-chloro-3-(pyrrolidine-1-carbonyl)phenyl)piperazine-1-carboxylate]
< 0.1	< 0.1	–	O=C(ON1C(=O)N[C@@H](Cc2ccc(C(F)(F)F)cc2)C1=O)N1CCN(c2cccc(C(=O)N3CCCCC3)c2Cl)CC1 [Example 22, (S)-2,5-dioxo-4-(4-(trifluoromethyl)benzyl)imidazolidin-1-yl 4-(2-chloro-3-(piperidine-1-carbonyl)phenyl)piperazine-1-carboxylate]
< 0.1	< 0.1	–	COc1ccc(C[C@@H]2NC(=O)N(OC(=O)N3CCN(c4cccc(C(=O)N5CCCCC5)c4Cl)CC3)C2=O)cc1 [Example 24, (S)-4-(4-methoxybenzyl)-2,5-dioxoimidazolidin-1-yl 4-(2-chloro-3-(piperidine-1-carbonyl)phenyl)piperazine-1-carboxylate]
–	0.1 to 1	inhibition at 10 µM [1]: 75%	CC(C)[C@H]1NC(=O)N(OC(=O)N2CCN(c3cccc(C(=O)N4CCOCC4)c3Cl)CC2)C1=O [Example 6, (R)-4-isopropyl-2,5-dioxoimidazolidin-1-yl 4-(2-chloro-3-(morpholine-4-carbonyl)phenyl)piperazine-1-carboxylate]
–	0.1 to 1	inhibition at 10 µM [1]: 75%	CC(C)[C@H]1NC(=O)N(OC(=O)N2CCN(c3cccc(C(=O)N4CCCC4)c3Cl)CC2)C1=O [Example 4, (R)-4-isopropyl-2,5-dioxoimidazolidin-1-yl 4-(2-chloro-3-(pyrrolidine-1-carbonyl)phenyl)piperazine-1-carboxylate]
0.1 to 1	0.1 to 1	–	CC(C)[C@@H]1NC(=O)N(OC(=O)N2CCN(c3cccc(C(=O)N4CCCCC4)c3Cl)CC2)C1=O [Example 2, (S)-4-isopropyl-2,5-dioxoimidazolidin-1-yl 4-(2-chloro-3-(piperidine-1-carbonyl)phenyl)piperazine-1-carboxylate]
